In PubChem BioAssay (NCI):
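Cultured in 96-well plates, cells were exposed to test compound for 48 hours across five concentrations. TGI: concentration producing complete growth inhibition.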

Experiments:
Assay in all cases: NCI-60 cell line screen, 48 h
[1] = test system: 786-0 renal
[2] = test system: HCT-116 colon
[3] = test system: MOLT-4 leukemia
[4] = test system: NCI-H460 lung
[5] = test system: OVCAR-3 ovarian
[6] = test system: OVCAR-8 ovarian
[7] = test system: SF-539 CNS
[8] = test system: SK-MEL-28 melanoma
[9] = test system: CAKI-1 renal
[10] = test system: MDA-MB-231 breast
[11] = test system: MDA-MB-435
[12] = test system: PC-3 prostate
[13] = test system: SR leukemia

SMILES | TGI [1] [µM] | TGI [2] [µM] | TGI [3] [µM] | TGI [4] [µM] | TGI [5] [µM] | TGI [6] [µM] | TGI [7] [µM] | TGI [8] [µM] | TGI [9] [µM] | TGI [10] [µM] | TGI [11] [µM] | TGI [12] [µM] | TGI [13] [µM]
COC(=O)C1=CO[C@@H](C)[C@@H]2Cn3ccc4c5ccccc5nc-4c3C[C@H]12 | > 100 | > 100 | > 100 | > 100 | > 100 | > 100 | > 100 | > 100 |  |  |  |  | 
COC1OC2COC1(OCc1ccccc1)C1OC(C)(C)OC21 (configuration not stated) | > 100 | > 100 | > 100 | > 100 | > 100 | > 100 |  | > 100 | > 100 | > 100 | > 100 | > 100 | > 100
O=P1(c2ccccc2)C(c2ccccc2)CCC1c1ccccc1 (configuration not stated) | > 100 | > 100 | > 100 |  | > 100 | > 100 | > 100 | > 100 | 73.9 | > 100 | > 100 | > 100 | 
COc1ccc(N2C(=O)C3CC(c4ccc(Br)cc4)c4c([nH]c5ccccc45)C3C2=O)cc1 (configuration not stated) | 4.45 | 16.1 | 29 | 17.2 |  | 5.96 | 11.7 | 28.5 | 29.6 |  |  |  | 
O=C1CCCCCCC2=C1C(Sc1ccccc1)CC2 (configuration not stated) | 33 | 67.8 | > 100 | > 100 |  | 54 |  | 94.8 |  |  |  |  | 79.3
CN(O)C(=O)CCC(NC(=O)CCC(N)C(=O)O)C(=O)NCC(=O)O (configuration not stated) | > 100 | > 100 | > 100 | > 100 | > 100 | > 100 | > 100 | > 100 | > 100 | > 100 | > 100 | > 100 | 
CCOC(=O)c1c(N)sc2c1CC(C)CC2 (configuration not stated) | 55.3 | > 100 | > 100 | > 100 | > 100 | > 100 |  | > 100 | > 100 | > 100 | > 100 | > 100 | 86.8
COC(=O)Nc1nc2ccc(NS(=O)(=O)c3cccs3)cc2[nH]1 | > 100 | 47.5 | 77.4 | > 100 | 49.2 | > 100 | > 100 | > 100 | > 100 | > 100 | 21.4 | > 100 | 
CCOC(=O)CNC(=O)C(CCC(=O)N(C)O)NC(=O)CCC(N)C(=O)O (configuration not stated) | > 100 | > 100 | > 100 | > 100 | > 100 | > 100 | > 100 | > 100 | > 100 | > 100 | > 100 | > 100 | 
COC(=O)C1CCC(=O)N1C(c1ccc(OC)cc1)c1cc(OC)c(OC)c(OC)c1 (configuration not stated) | > 100 |  | > 61.1 |  | 0.597 | > 100 |  | > 100 | > 100 | 64.9 | 0.243 | > 37.4 | 
O=C1C(Cl)=C(Cl)C(=O)C(CCNc2nccs2)=C1Cl | 45 | 68.4 | > 100 | > 100 | 49.8 | 87.3 | > 100 | > 100 | 37.1 |  | 42 | 42.2 | > 100
CCOC(=O)C(NC(=O)c1cccc(Cl)c1)(Nc1ccc(S(=O)(=O)Nc2cc(C)on2)cc1)C(F)(F)F (configuration not stated) | > 100 | > 100 | > 100 | > 100 | > 100 | > 100 | > 100 | > 100 | > 100 | > 100 | > 100 | > 100 | 
COc1ccc(/C=N\N(C)Cc2cccc3ccsc23)cc1 | > 100 | > 100 | > 100 | > 100 | > 100 | > 100 |  | > 100 | > 100 | > 100 | > 100 | > 100 | > 100
CCOC(=O)c1c(O)cn2c1[nH]c1cccc3cccc2c31 | > 100 | > 100 | > 100 | > 100 |  | > 100 |  | > 100 | > 100 | > 100 | > 100 | > 100 | > 100
NCC(=O)Nc1ccccc1 | > 100 | > 100 | > 100 | > 100 | > 100 | > 100 |  | > 100 | > 100 | > 100 | > 100 | > 100 | > 100
